System: Saccharomyces cerevisiae ABC16-Green Monster
Test: growth inhibition at single dose (up to 150 µM), below the 70% cut-off for dose-response; higher = more potent
Details: 18 h; 30 °C; YPD
Procedure, shortened: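 Percent growth inhibition is the reported value. Drug-sensitive S. cerevisiae ABC16-Green Monster cultures in log phase (OD600 0.1–0.2), 200 µl per well in 96-well plates, received each library compound once at 150 µM in biological duplicates, with untreated cultures run alongside. Growth was followed by OD600 at 0 h and after 18 h at 30 °C. Dose-response was not done for compounds below 70% in both replicates.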

SMILES | growth inhibition at single dose
O=C(Nc1cnc2ccccc2c1)c1cccc(NC(=O)c2cccs2)c1 | < 70%
COc1cc2c(cc1OC)CN(C(=O)c1ccc(OCC(F)(F)F)nc1)CC2 | < 70%
Cc1cccc(C(=O)Nc2ccnc(N(C)C3CCN(CC(C)C)CC3)c2)c1 | < 70%
O=C(c1cc(-c2ccccc2)n[nH]1)N1CCN(S(=O)(=O)c2ccccc2)CC1 | < 70%
FC(F)(F)c1cccc(Nc2nc(-c3ccccc3)nc3ncccc23)c1 | < 70%
CCCCOC(=O)Nc1cc2nc(C3CCCCC3)[nH]c2cc1N1CCCC1 | < 70%
O=C(C1CCN(c2nnc(-n3cccc3)s2)CC1)N1CCC(Cc2ccccc2)CC1 | < 70%
CCOC(=O)c1c(C)[nH]c(C(=O)Nc2ncccc2C)c1C | < 70%
COCC(C)n1c(C)cc(C(=O)COC(=O)c2cccn2C)c1C (configuration not stated) | < 70%
CC(c1ccc(-c2ccccc2)c(F)c1)c1nn2c(-c3ccco3)nnc2s1 (configuration not stated) | < 70%
CC(C(=O)NC(N)=O)N(C)Cc1ccc(OCc2ccc(Cl)cc2)cc1 (configuration not stated) | < 70%
Cc1ccnc2nc(C(=O)Nc3cc(C(F)(F)F)ccc3N3CCCCCC3)nn12 | < 70%
COc1ccccc1CNC(=O)CCn1c(=O)[nH]c2ccsc2c1=O | < 70%
CCOC(=O)c1cn(CC)c2cc(N3CCCCC3)c(F)cc2c1=O | < 70%
Cc1cc(N2CCCC2)nc(Nc2ccc(NC(=O)CCc3ccccc3)cc2)n1 | < 70%
CCOC(=O)c1c(C)n(-c2ccccc2)c2ccc(OC(=O)c3cc(OC)c(OC)c(OC)c3)cc12 | < 70%
Cc1ccnc(NC(=O)C2CC(=O)N(c3ccc(C)c(C)c3)C2)c1 (configuration not stated) | < 70%
COc1cccc(C(=O)NC(c2ccc(C)cc2)c2cc(Cl)c3cccnc3c2O)c1 (configuration not stated) | < 70%
Cc1cccc(Cn2ccc(NC(=O)c3ccc4c(c3)OCO4)n2)c1 | < 70%
CC(C)Cc1ccc(C(C)c2nn3c(-c4ccco4)nnc3s2)cc1 (configuration not stated) | < 70%
Cc1c(C)c(C)c(S(=O)(=O)N2CCN(C(C)C(=O)NC3CC3)CC2)c(C)c1C (configuration not stated) | < 70%
CCOC(=O)Cc1ccc(NC(=O)c2ccc(C(C)(C)C)cc2)cc1 | < 70%
CCOC(=O)c1[nH]c(C)c(C(=O)OCC(=O)Nc2ccc(Cl)cn2)c1C | < 70%

SMILES | growth inhibition at single dose
Cc1cc(=O)oc2c1ccc1oc(C(=O)c3ccccc3)c(C)c12 | < 70%
O=C(Nc1ccccc1O)c1ccc(-c2ccc(Cl)cc2Cl)o1 | < 70%
c1cc(C2=NCCN2)cc(-c2cc(-c3ccc(C4=NCCN4)cc3)no2)c1 | < 70%
CCc1ccc(S(=O)(=O)Nc2cc(CN3CCN(CCC(C)C)CC3)ccc2C)cc1 | < 70%
CC(O)(c1ccc(Cl)cc1)C(CN1CCCCC1)c1ccccc1 (configuration not stated) | < 70%
CC1=C(CC(=O)c2cccc([N+](=O)[O-])c2)C(=O)c2ccccc2C1=O | < 70%
CCOc1ccccc1CN1CCc2nc3cc(C(C)(C)C)nn3c(O)c2C1 | < 70%
O=C(CSc1nccn2nc(-c3ccccc3)cc12)Nc1cc(C(F)(F)F)ccc1Cl | < 70%
CCOc1c(Cl)cc(CNCC(O)c2ccccc2)cc1OC (configuration not stated) | < 70%
Nc1nccnc1C(=O)Nc1nc2cc3c(cc2s1)OCCO3 | < 70%
Oc1c2c(nc3cc(-c4ccccc4)nn13)CCCC2 | < 70%
Cc1ccc2nc(Cl)c(CNCc3cccs3)cc2c1 | < 70%
COc1ccc2c(c1)OC(O)(C(F)(F)C(F)(F)F)CC2=O (configuration not stated) | < 70%
O=C(Nc1ccc2c(c1)OC1(CCCCC1)O2)c1ccc[nH]c1=S | < 70%
COc1ccc([N+](=O)[O-])cc1C(=O)Nc1nc2c(s1)CCCCC2 | < 70%
CCc1nc(COC(=O)c2c(C)nsc2NC)cs1 | < 70%
Cc1cccnc1NC(=O)c1cccc(OCc2c(C)noc2C)c1 | < 70%
CCOc1ccc(S(=O)(=O)CC2=NCCc3cc(OC)c(OC)cc32)cc1 | < 70%
O=C(Nc1ccc(N2CCCC2)cn1)c1cccc(F)c1 | < 70%
COc1cccc(Nc2nc(NCCO)c3ccccc3n2)c1 | < 70%
NC(=O)c1ccsc1NC(=O)CSc1ncc(-c2ccccc2)n1-c1ccccc1 | < 70%
N#Cc1ccsc1NC(=O)CN1CCN(CC(=O)Nc2ccc(Cl)c(C(F)(F)F)c2)CC1 | < 70%
O=C(c1ccc(F)cc1)N(CCNc1ccccc1)c1ccccc1 | < 70%

SMILES | growth inhibition at single dose
N#CCc1c(C#N)c(N)nc(Nc2ccc(F)cc2F)c1C#N | < 70%
O=C1O[C@@H](COc2ccon2)CN1c1cc(F)c(C2=CCN(Cc3ccccc3)CC2)c(F)c1 | < 70%
CCOC(=O)c1c(C)[nH]c(C(=O)Nc2cccc(C)n2)c1C | < 70%
O=C(Cn1ncc(Cl)c(Cl)c1=O)NCC(=O)Nc1ccc(F)c(F)c1F | < 70%
COc1ccc(CN=C2NN=C(c3cc4ccccc4o3)CS2)cc1 | < 70%
COc1ccc(Cl)cc1NC(=O)CN(C)C(=O)c1cnn(-c2ccccc2)n1 | < 70%
CCCc1c(CC)c(=N)c2ccccc2n1C | < 70%
Cc1ccccc1OCCSc1nc2ccc(NC(=O)c3ccccc3)cc2s1 | < 70%
CCc1ccc([C@@H]2C[C@H](C(F)(F)F)n3ncc(C(=O)NCc4ccc(OC)cc4)c3N2)cc1 | < 70%
O=C1c2ccc3c4c(ccc(c24)C(=O)N1CCCCO)C(=O)N(CCCCO)C3=O | < 70%
CNc1nnc(Sc2cnn(-c3ccccc3)c(=O)c2Cl)s1 | < 70%
Cc1ccc(C(=O)NC(C)C)n1C | < 70%
O=C(NC1CCN(c2ccc(S(=O)(=O)C(F)(F)F)cc2)CC1)C1CC1 | < 70%
OC(c1cn2cc(-c3ccc(F)cc3)nc2s1)(C(F)(F)F)C(F)(F)F | < 70%
Cc1cccc(N2CCN(C(=O)c3ccc4[nH]c(C)c(C)c4c3)CC2)c1C | < 70%
Cc1ccccc1-n1c(SCC(=O)NC2CCCCC2)nc(O)cc1=O | < 70%
COc1ccc(Nc2cc(C)nc(-n3nc(C)cc3C)n2)cc1 | < 70%
CCCCCCCCCCCCCCCCOP(=O)([O-])OCC[N+](C)(C)C | < 70%
O=C1N/C(=N\C2CCCC2)S/C1=C\c1ccc2c(c1)OCCO2 | < 70%
Cc1nc(-c2cccc(NCc3ccccc3)c2)[nH]c1C | < 70%
Cc1nn(-c2ccccc2)c(C)c1-c1nc(-c2ccccc2)no1 | < 70%
COc1ccc(NC2=NC(=O)/C(=C/c3cc(C)n(-c4cccc(Cl)c4Cl)c3C)S2)cc1 | < 70%
C[C@H]1c2cccc(O)c2C(=O)C2=C(O)[C@]3(O)C(=O)C(C(N)=O)=C(O)[C@@H](N(C)C)[C@@H]3[C@@H](O)[C@@H]21 | < 70%

SMILES | growth inhibition at single dose
COc1cc2c3cc1Oc1c(OC)c(OC)cc4c1C(Cc1ccc(O)c(c1)Oc1ccc(cc1)CC3N(C)CC2)N(C)CC4 (configuration not stated) | < 70%
COc1cccc(O)c1CN1CCC2(CCCN(Cc3ccc(F)cc3)C2)C1 (configuration not stated) | < 70%
CC(=O)NCC1CN(c2ccc(-c3ccc(CNCc4cn[nH]n4)cc3)c(F)c2)C(=O)O1 (configuration not stated) | < 70%
O=C(Nc1ccc(-c2nc3ccccc3[nH]2)cc1)c1ccc(Cl)c(Cl)c1 | < 70%
COc1cc(Nc2ncnc3ccsc23)cc(OC)c1 | < 70%
c1ccc(Oc2ccc(-c3cc(N4CCOCC4)[nH]n3)cc2)cc1 | < 70%
COc1ccc(C(C)=O)cc1N1C(=O)C2C(C1=O)C1(c3ccccc3)C(=O)C2(c2ccccc2)C(c2ccc(C)cc2)=C1c1ccc(C)cc1 (configuration not stated) | < 70%
CC(C)c1nc2cc(NC(=O)CSc3nnnn3C3CC3)ccc2o1 | < 70%
Cc1cc(NC(=O)c2cccc(C(F)(F)F)c2)n(-c2nc(-c3ccc4c(c3)OCO4)cs2)n1 | < 70%
Cc1ccc(/C=C/C(=O)NC2=NCCS2)c(Br)c1 | < 70%
CCn1nnnc1Sc1nc(C)nc2sc3c(c12)CCC3 | < 70%
Cc1ccc(NC(=O)c2cc(C(C)(C)C)n(-c3ccccc3)c2C)cc1 | < 70%
CN(C)CCNc1cc(-c2ccccc2)nc2ccccc12 | < 70%
COc1ccc(S(=O)(=O)N2CCSc3cc(Cl)ccc32)cc1 | < 70%
O=C(Nc1ccc(-c2nc3cc4ccccc4cc3[nH]2)cc1)c1cccc(Br)c1 | < 70%
Cc1ccc(/C(C#N)=C/c2ccc(N(C)C)cc2)cc1 | < 70%
C[C@H]1COc2c(N3CCN(C)CC3)c(F)cc3c(=O)c(C(=O)O)cn1c23 | < 70%
COc1ccc(-c2csc(N/C=C3/C(=O)NC(=O)c4ccccc43)n2)cc1OC | < 70%
COc1cc(C2=NCCN2)cc2cc(-c3ccc(C4=NCCN4)cc3)oc12 | < 70%
CCn1c2c(c(=N)c3c1CCC3)CCCC2 | < 70%
N#Cc1ccc(Cc2cnc(NC(=O)c3ccc4ncsc4c3)s2)cc1 | < 70%
Cc1cc(C)n2ncc(C(=O)Nc3cccc(/C=C/c4ccccn4)c3)c2n1 | < 70%
CO[C@@H]1CN(c2ccc(C#CC3(O)CN4CCC3CC4)c(Cc3ccccc3)n2)C[C@H]1O (some centres not stated) | < 70%

Reference: the supplement of paper PMC8837787
